Assay results taken from patent US9597407B2, “Targeted antimicrobial moieties” (C3 Jian, Inc., priority 2009, dated 2017).
Entries after “also recorded” stand apart in the source; their conditions may differ.

Legend:
[1] = tested on: microorganisms; test: Peptide activities: binding, antimicrobial, growth or phenotype altering (Table 8)
Source text: In certain embodiments, peptides described herein can have multiple activities. Thus for example, a peptide can have both binding/targeting activity and antimicrobial activity. Such peptides can be used, e.g., in a chimeric construct, for any or all of these properties. Thus, for example, a peptide designated “B” in Table 8 can be used as a targeting peptide. If it is also designated G or M it can also be used for antimicrobial activity.

[2] = tested on: microorganisms; test: Morphology, biofilm and growth disruption by peptides (Table 5); format: cell-based; parameters: key: A: Peptide aggregates; B: Less hyphal formation; Clumps; Diffuse clumps and small polyps; F: Diffuse growth; H: Thin; I: Growth inhibition; Microcolony formation; Rippled; Small polyps; Thick; W: Halo formation on top, microlonies on bottom
Source text: In certain embodiments peptides that induce alterations in phenotype or other biological activities can also be used as antimicrobial effector moieties.

[3] = tested on: bacteria; test: Binding of targeting peptides to microorganisms (Table 3); conditions: preferably 1x PBS
[4] = microorganism the targeting peptide binds, binding in aqueous buffers that varied with peptide solubility
[5] = microorganism bound by the targeting peptide, binding in aqueous buffers chosen by peptide solubility

| Substance | Activities [1] | Organism, effect ([2]; MRSA) | Organism, effect ([2]; S. epidermidis) | Target(s) [3, 4] | Organism, effect ([2]; C. jeikeium) | Organism, effect ([2]; M. luteus) | other results |
| --- | --- | --- | --- | --- | --- | --- | --- |
| PF-027 (HNARKYLEFISQKIDGDKLTKEDSL; Peptide with targeting and/or antimicrobial activity) | G B | MRSA (M) | S. epidermidis (D) | M. luteus and MRSA and E. faecalis and C. jejuni |  |  |  |
| PF-029 (NSTNE; Peptide with targeting and/or antimicrobial activity) | G B | MRSA (M) |  | S. epidermidis; also recorded: M. luteus; also recorded: C. albicans; also recorded: C. jejuni |  |  |  |
| PF-031 (MPHHSTTSSRIVVPAHQSNMASTPNLSITP; Peptide with targeting and/or antimicrobial activity) | G B | MRSA (M) |  | M. luteus; also recorded: C. albicans |  |  |  |
| PF-034 (EPKKKHFPKMESASSEP; Peptide with targeting and/or antimicrobial activity) | G B |  | S. epidermidis (A) | M. luteus |  |  |  |
| PF-035 (SFYESY; Peptide with targeting and/or antimicrobial activity) | G B | MRSA (M) |  | S. epidermidis and M. luteus and E. coli and C. albicans and MRSA and C. jeikeium and C. jejuni |  |  |  |
| PF-036 (ILNRLSRIVSNEVTSLIYSLK; Peptide with targeting and/or antimicrobial activity) | G B | MRSA (R) | S. epidermidis (S) | S. epidermidis and M. luteus and P. mirabilis and E. coli and C. albicans and MRSA and S. pneumoniae and C. jejuni | C. jeikeium (A) | M. luteus (A) |  |
| PF-037 (MTKKRRYDTTEFGLAHSMTAKITLHQALYK; Peptide with targeting and/or antimicrobial activity) | G B | MRSA (R) | S. epidermidis (D) | S. epidermidis and M. luteus and P. aeruginosa and C. albicans and MRSA and S. pneumoniae and E. faecalis and C. jeikeium | C. jeikeium (D) | M. luteus (C) |  |
| PF-041 (ELLVILPGFI; Peptide with targeting and/or antimicrobial activity) | G B | MRSA (M) | S. epidermidis (R) | MRSA |  |  |  |
| PF-043 (MIKNETAYQMNELLVIRSAYAK; Peptide with targeting and/or antimicrobial activity) | G B | MRSA (R) | S. epidermidis (D) | M. luteus; also recorded: C. jejuni | C. jeikeium (A) | M. luteus (C) |  |
| PF-045 (LDINDYRSTY; Peptide with targeting and/or antimicrobial activity) | G B | MRSA (S) |  | S. epidermidis; also recorded: E. coli; also recorded: E. faecalis; also recorded: C. jejuni |  |  |  |
| PF-046 (LDFYLTKHLTLML; Peptide with targeting and/or antimicrobial activity) | G B | MRSA (R) | S. epidermidis (C) | E. coli; also recorded: E. faecalis; also recorded: C. jeikeium | C. jeikeium (R) |  |  |
| PF-048 (LYFAFKKYQERVNQAPNIEY; Peptide with targeting and/or antimicrobial activity) | G B | MRSA (W) | S. epidermidis (D) | S. epidermidis and M. luteus and E. coli and MRSA and C. jeikeium and C. jejuni | C. jeikeium (S) |  |  |
| PF-049 (AYYLKRREEKGK; Peptide with targeting and/or antimicrobial activity) | G B | MRSA (S) |  | S. epidermidis and MRSA and C. jeikeium and C. jejuni |  |  |  |
| PF-051 (RFFNFEIKKSTKVDYVFAHVDLSDV; Peptide with targeting and/or antimicrobial activity) | G B | MRSA (D) | S. epidermidis (D) | S. epidermidis and M. luteus and P. aeruginosa and C. albicans and MRSA and S. pneumoniae and E. faecalis |  | M. luteus (C) | Organism, effect ([2]; S. mutans): S. mutans (D); Organism, effect ([2]; S. pneumoniae): S. pneumoniae (D) |
| PF-052 (QELINEAVNLLVKSK; Peptide with targeting and/or antimicrobial activity) | G B | MRSA (R) | S. epidermidis (S) | S. epidermidis and M. luteus and E. coli and MRSA and E. faecalis and C. jeikeium and C. jejuni | C. jeikeium (D) | M. luteus (A) |  |
| PF-053 (KLFGQWGPELGSIYILPALIGSIILIAIVTLILRAMRK; Peptide with targeting and/or antimicrobial activity) | G B | MRSA (D) | S. epidermidis (C) | S. epidermidis and M. luteus and E. coli and P. aeruginosa and C. albicans and MRSA and S. pneumoniae and E. faecalis | C. jeikeium (D) | M. luteus (D) | Organism, effect ([2]; B. subtilis): B. subtilis (H); Organism, effect ([2]; C. albicans): C. albicans (A); Organism, effect ([2]; C. jejuni): C. jejuni (D); Organism, effect ([2]; E. coli): E. coli (A); Organism, effect ([2]; E. faecalis): E. faecalis (A); Organism, effect ([2]; P. aeruginosa): P. aeruginosa (A); Organism, effect ([2]; S. pneumoniae): S. pneumoniae (S) |
| PF-058 (FADQSQDNA; Peptide with targeting and/or antimicrobial activity) | G B | MRSA (M) |  | S. epidermidis and M. luteus and E. coli and C. albicans and MRSA and C. jeikeium and C. jejuni |  |  |  |
| PF-061 (GYNSYKAVQDVKTHSEEQRVTAKK; Peptide with targeting and/or antimicrobial activity) | G B |  | S. epidermidis (R) | S. epidermidis; also recorded: S. pneumoniae |  |  | Organism, effect ([2]; B. subtilis): B. subtilis (R); Organism, effect ([2]; C. jejuni): C. jejuni (R); Organism, effect ([2]; S. pneumoniae): S. pneumoniae (R) |
| PF-064 (DYYGKE; Peptide with targeting and/or antimicrobial activity) | G B | MRSA (M) | S. epidermidis (D) | E. coli |  |  |  |
| PF-066 (IKGTVKAVDETTVVITVNGHGTELTFEKPAIKQVDPS; Peptide with targeting and/or antimicrobial activity) | G B | MRSA (S) |  | M. luteus; also recorded: E. coli; also recorded: C. jeikeium |  |  |  |
| PF-073 (CPSVTMDACALLQKFDFCNNISHFRHFFAIKQPIER; Peptide with targeting and/or antimicrobial activity) | G B | MRSA (M) | S. epidermidis (R) |  | C. jeikeium (D) | M. luteus (R) | Organism, effect ([2]; C. jejuni): C. jejuni (D); Organism, effect ([2]; S. pneumoniae): S. pneumoniae (D); Target(s) [3, 5]: S. epidermidis and M. luteus and P. aeruginosa and C. albicans and MRSA and S. pneumoniae and E. faecalis |
| PF-127 (MLRYLSLFAVGLATGYAWGWIDGLAASLAV; Peptide with targeting and/or antimicrobial activity) | G B |  | S. epidermidis (M) |  | C. jeikeium (A) | M. luteus (A) | Target(s) [3, 5]: S. epidermidis and M. luteus and E. coli and P. aeruginosa and C. albicans and MRSA and S. pneumoniae and E. faecalis |
